Literature values, collected in patent publication US6399104B1, “Pharmaceutical compositions” (AstraZeneca UK Limited, priority 1997, dated 2002).

Settings: as disclosed in U.S. Pat. No. 5,319,097

bioavailability: good bioavailability
Structure (SMILES): COc1cc(C(=O)NS(=O)(=O)c2ccccc2C)ccc1Cc1cn(C)c2ccc(NC(=O)OC3CCCC3)cc12 [Form A, N-[4-[5-(cyclopentyloxycarbonyl)amino-1-methylindol-3-ylmethyl]-3-methoxybenzoyl]-2-methylbenzene]
